Laboratory results taken from patent US20250332173A1, “COMPOUNDS AND METHODS FOR MODULATING NUCLEIC ACID SPLICING” (REMIX THERAPEUTICS INC., priority 2021, published 2025).
Where two headings read alike, the source gives them in different places.

Tested on: MYB mRNA
Assay: RT-qPCR splicing assay, MYB canonical junction (CJ) and alternative junction (AJ) mRNA
Format: cell-based, human
Details: Homo sapiens; for AC50: increase in MYB alternative junction (AJ) mRNA, read-out: MYB AJ AC50
Method in brief: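 24 h treatment, 37 °C/5% CO2; A673 or K562; 11-pt 3-fold series, top 10 uM final; DMSO ≤0.25%. Cell lysis with DNase I, then 1-step RT-qPCR. Housekeeping normalization: PPIA (A673), GAPDH or GUSB (K562).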

[1] = Table 5 panel, canonical junction qPCR, compound concentration having 50% response in CJ decrease, read-out: MYB IC50 (decrease in CJ mRNA levels)
[2] = decrease in MYB canonical junction (CJ) mRNA, RT-qPCR, read-out: MYB CJ IC50

SMILES | IC50 [1] | IC50 [2] | AC50 (RT-qPCR)
CCN1CCC(n2ccc3cc(-c4cc(C)c5nc(C)cn5n4)ccc3c2=O)CC1 [Compound 402, 6-{2,8-dimethylimidazo[1,2-b]pyridazin-6-yl}-2-(1-ethylpiperidin-4-yl)isoquinolin-1-one] | < 100 nM | 100 to 1000 nM | < 100 nM
Cc1cn2nc(-c3cc(F)c4c(=O)n([C@H]5CCNC6(CC6)C5)ncc4c3)cc(C)c2n1 [Compound 447] | < 100 nM | < 100 nM | < 100 nM
Cn1cc2cc(-c3cc(F)c4c(=O)n(C5CCNCC5)ccc4c3)cc(C#N)c2n1 [Compound 394, 5-(8-fluoro-1-oxo-2-(piperidin-4-yl)-1,2-dihydroisoquinolin-6-yl)-2-methyl-2H-indazole-7-carbonitrile] | < 100 nM | < 100 nM | < 100 nM
Cn1cc2cc(-n3cnc4cc(NC5CCNCC5)ccc4c3=O)ccc2n1 [Compound 162] | > 10000 nM | > 10000 nM | > 10000 nM
Cc1cn2nc(-c3ccc4c(=O)n(C5CCCNC5)ccc4c3)cc(C)c2n1 (stereo in doubt) [Compound 411, 6-{2,8-dimethylimidazo[1,2-b]pyridazin-6-yl}-2-[(3R)-piperidin-3-yl]isoquinolin-1-one] | 1000 to 10000 nM | 1000 to 10000 nM | 1000 to 10000 nM
Cc1cn2cc(-c3ccc4c(=O)n([C@H]5CCCNC5)ccc4c3)cc(F)c2n1 [Compound 404, 6-{8-fluoro-2-methylimidazo[1,2-a]pyridin-6-yl}-2-[(3S)-piperidin-3-yl]isoquinolin-1-one] | 1000 to 10000 nM | 1000 to 10000 nM | 1000 to 10000 nM
COc1cc(-c2cc(C)c3nc(C)cn3n2)cc2ccn(C3CCNCC3)c(=O)c12 [Compound 399, 6-{2,8-dimethylimidazo[1,2-b]pyridazin-6-yl}-8-methoxy-2-(piperidin-4-yl)isoquinolin-1-one] | 100 to 1000 nM | 100 to 1000 nM | 100 to 1000 nM
Cc1cn2nc(-c3cc(F)c4c(=O)n([C@H]5CCNC6(CC6)C5)ccc4c3)cc(C)c2n1 (single isomer, unassigned) [Compound 426] | < 100 nM | < 100 nM | < 100 nM
Cc1cc(-c2cc(F)c3c(=O)n(C4CCNC5(CC5)C4)ccc3c2)nc2cn(C)nc12 (stereo not drawn) [Compound 431] | < 100 nM | < 100 nM | < 100 nM
Cc1cn2nc(-c3cc(C)c4c(=O)n(C5CCNC6(CC6)C5)ccc4c3)cc(C)c2n1 (stereo in doubt) [Compound 397, (S)-6-(2,8-dimethylimidazo[1,2-b]pyridazin-6-yl)-8-methyl-2-(4-azaspiro[2.5]octan-7-yl)isoquinolin-1(2H)-one] | 100 to 1000 nM | < 100 nM | 100 to 1000 nM
Cc1cn2nc(-c3cc(F)c4c(=O)n(C5CCN(C)CC5)ccc4c3)cc(C)c2n1 [Compound 400, 6-(2,8-dimethylimidazo[1,2-b]pyridazin-6-yl)-8-fluoro-2-(1-methylpiperidin-4-yl)isoquinolin-1(2H)-one] | < 100 nM | < 100 nM | < 100 nM
Cc1cn2nc(-c3cc(O)c4c(=O)n(C5CCNCC5)ccc4c3)cc(C)c2n1 [Compound 391, 6-(2,8-dimethylimidazo[1,2-b]pyridazin-6-yl)-8-hydroxy-2-(piperidin-4-yl)isoquinolin-1(2H)-one] | < 100 nM | < 100 nM | < 100 nM
Cc1cn2cc(-c3cc(F)c4c(=O)n(C5CCNC6(CC6)C5)ccc4c3)cc(C)c2n1 (stereo not drawn) [Compound 416, 2-{4-azaspiro[2.5]octan-7-yl}-6-{2,8-dimethylimidazo[1,2-a]pyridin-6-yl}-8-fluoroisoquinolin-1-one] | < 100 nM | < 100 nM | < 100 nM
Cc1cn2cc(-c3ccc4c(=O)n(C5CCNC5)cc(C)c4c3)cc(C#N)c2n1 (stereo not drawn) [Compound 442, 2-methyl-6-[4-methyl-1-oxo-2-(pyrrolidin-3-yl)isoquinolin-6-yl]imidazo[1,2-a]pyridine-8-carbonitrile] | > 10000 nM | > 10000 nM | > 10000 nM
Cc1cn2nc(-c3cc(F)c4c(=O)n([C@@H]5CCNC6(CC6)C5)ccc4c3)cc(C)c2n1 (single isomer, unassigned) [Compound 425] | < 100 nM | < 100 nM | < 100 nM
CN1C2C=C(c3ccc4c(=O)n(-c5ccc6nn(C)cc6c5)cnc4c3)CC1CC2 (stereo not drawn) [Compound 161] | > 10000 nM | > 10000 nM | > 10000 nM
Cc1cn2cc(-c3cc(F)c4c(=O)n(C5CCNCC5)cc(C)c4c3)cc(F)c2n1 [Compound 461, 8-fluoro-6-{8-fluoro-2-methylimidazo[1,2-a]pyridin-6-yl}-4-methyl-2-(piperidin-4-yl)isoquinolin-1-one] | < 100 nM | < 100 nM | < 100 nM
Cc1cn2nc(-c3ccc4c(=O)n([C@H]5CCNC[C@H]5F)cnc4c3)cc(C)c2n1 [Compound 372] | 100 to 1000 nM | 100 to 1000 nM | 100 to 1000 nM

SMILES | IC50 [1] | IC50 [2] | AC50 (RT-qPCR)
Cc1cn2cc(-c3cc(F)c4c(=O)n(C5CCOC5)cnc4c3)cc(C#N)c2n1 (stereo not drawn) [Compound 366, 6-[5-fluoro-4-oxo-3-(oxolan-3-yl)quinazolin-7-yl]-2-methylimidazo[1,2-a]pyridine-8-carbonitrile] | 1000 to 10000 nM | 1000 to 10000 nM | 1000 to 10000 nM
Cc1cn2nc(-c3cc(Cl)c4c(=O)n(C5CCNCC5)ccc4c3)cc(C)c2n1 [Compound 390, 8-chloro-6-{2,8-dimethylimidazo[1,2-b]pyridazin-6-yl}-2-(piperidin-4-yl)isoquinolin-1-one; trifluoroacetaldehyde] | < 100 nM | < 100 nM | < 100 nM
Cc1nc2c(C)cc(-c3cc(F)c4c(=O)n(C5CCNC6(CC6)C5)ccc4c3)cc2o1 (stereo not drawn) [Compound 418, 2-{4-azaspiro[2.5]octan-7-yl}-6-(2,4-dimethyl-1,3-benzoxazol-6-yl)-8-fluoroisoquinolin-1-one] | < 100 nM | < 100 nM | < 100 nM
Cn1cc2cc(-c3cc(F)c4c(=O)n(C5CCNC6(CC6)C5)ccc4c3)c(O)c(F)c2n1 (stereo not drawn) [Compound 420, 2-{4-azaspiro[2.5]octan-7-yl}-8-fluoro-6-(7-fluoro-6-hydroxy-2-methylindazol-5-yl)isoquinolin-1-one] | 100 to 1000 nM | 100 to 1000 nM | 100 to 1000 nM
Cc1cn2cc(-c3cc(F)c4c(=O)n([C@H]5CCNC5)ccc4c3)cc(F)c2n1 (single isomer, unassigned) [Compound 396] | < 100 nM | < 100 nM | < 100 nM
Cc1cn2cc(-c3cc(F)c4c(=O)n(C5CCNC5)ccc4c3)cc(C#N)c2n1 (stereo not drawn) [Compound 434, 6-[8-fluoro-1-oxo-2-(pyrrolidin-3-yl)isoquinolin-6-yl]-2-methylimidazo[1,2-a]pyridine-8-carbonitrile] | 100 to 1000 nM | 100 to 1000 nM | 100 to 1000 nM
Cc1cn2nc(-c3cc(F)c4c(=O)n(C5CCNC5)ccc4c3)cc(C)c2n1 (stereo in doubt) [Compound 382, (R)-6-(2,8-dimethylimidazo[1,2-b]pyridazin-6-yl)-8-fluoro-2-(pyrrolidin-3-yl)isoquinolin-1(2H)-one] | < 100 nM | 100 to 1000 nM | < 100 nM
Cc1cn2cc(-c3cc(F)c4c(=O)n([C@@H]5CCNC5)ccc4c3)cc(F)c2n1 (single isomer, unassigned) [Compound 395] | < 100 nM | 100 to 1000 nM | < 100 nM
Cc1cn2cc(-c3ccc4c(=O)n(C5CCNC5)cc(C)c4c3)cc(F)c2n1 (stereo not drawn) [Compound 441, 6-{8-fluoro-2-methylimidazo[1,2-a]pyridin-6-yl}-4-methyl-2-(pyrrolidin-3-yl)isoquinolin-1-one] | 1000 to 10000 nM | 1000 to 10000 nM | 1000 to 10000 nM
Cc1cn2nc(-c3cc(O)c4c(=O)n(C5CCNC5)cc(C)c4c3)cc(C)c2n1 (stereo not drawn) [Compound 462] | 1000 to 10000 nM | 1000 to 10000 nM | 1000 to 10000 nM
Cc1cn2nc(-c3cc(O)c4c(=O)n(C5CCNC5)ccc4c3)cc(C)c2n1 (stereo not drawn) [Compound 432, 6-{2,8-dimethylimidazo[1,2-b]pyridazin-6-yl}-8-hydroxy-2-(pyrrolidin-3-yl)isoquinolin-1-one] | < 100 nM | 100 to 1000 nM | < 100 nM
Cc1cn2nc(-c3ccc4c(=O)n([C@@H]5CCNC[C@H]5F)ncc4c3)cc(C)c2n1 [Compound 379] | 100 to 1000 nM | 100 to 1000 nM | 100 to 1000 nM
Cn1cc2cc(-c3cc(F)c4c(=O)n(C5CCNC6(CC6)C5)ccc4c3)cc(F)c2n1 (stereo not drawn) [Compound 412] | < 100 nM | < 100 nM | < 100 nM
Cc1cn2nc(-c3ccc4c(=O)n([C@H]5CCNC6(CC6)C5)ncc4c3)cc(C)c2n1 [Compound 369, 2-[(7S)-4-azaspiro[2.5]octan-7-yl]-6-{2,8-dimethylimidazo[1,2-b]pyridazin-6-yl}phthalazin-1-one] | < 100 nM | < 100 nM | < 100 nM
Cc1nc2c(F)cc(-c3cc(F)c4c(=O)n(C5CCNC6(CC6)C5)ccc4c3)cc2n1C (stereo not drawn) [Compound 430, 8-fluoro-6-(4-fluoro-1,2-dimethyl-1H-benzo[d]imidazol-6-yl)-2-(4-azaspiro[2.5]octan-7-yl)isoquinolin-1(2H)-one] | > 10000 nM | > 10000 nM | > 10000 nM
Cc1cn2cc(-c3cc(F)c4c(=O)n(C5CCNC6(CC6)C5)ccc4c3)cc(Cl)c2n1 (stereo not drawn) [Compound 413, 2-{4-azaspiro[2.5]octan-7-yl}-6-{8-chloro-2-methylimidazo[1,2-a]pyridin-6-yl}-8-fluoroisoquinolin-1-one] | < 100 nM | < 100 nM | < 100 nM
Cn1cc2cc(-n3cnc4cc(C5CCNCC5)ccc4c3=O)ccc2n1 [Compound 172] | > 10000 nM | > 10000 nM | > 10000 nM
